Reference: the NIST ThermoML archive (doi:10.1021/je9002948)

What was measured:
[1] = molar heat capacity at constant pressure; wn = mass fraction of the nth substance listed; settings: 101 kPa, Liquid, Small sample (50 mg) DSC
[2] = molar heat capacity at constant pressure; settings: 101.33 kPa, Liquid, Small sample (50 mg) DSC

NCC(=O)[O-].[Na+] [sodium glycinate] + O
molar heat capacity at constant pressure [J/K/mol], [1]
Settings | 298.15 K | 303.15 K | 308.15 K | 313.15 K | 318.15 K | 323.15 K
w1 = 0.01 | 75.2 | 75.21 | 75.25 | 75.32 | 75.4 | 75.41
w1 = 0.05 | 76.7 | 76.72 | 76.77 | 76.85 | 76.92 | 77.05
w1 = 0.1 | 77.39 | 77.41 | 77.47 | 77.53 | 77.59 | 77.67
w1 = 0.15 | 78.81 | 78.85 | 78.91 | 78.99 | 79.07 | 79.2
w1 = 0.2 | 78.23 | 78.79 | 79.45 | 80.12 | 80.77 | 81.48
w1 = 0.3 | 80.84 | 81.46 | 82.1 | 82.75 | 83.44 | 84.11

O [water]
[2]
Settings | molar heat capacity at constant pressure [J/K/mol]
303.15 K | 75.29
308.15 K | 75.36
313.15 K | 75.38
318.15 K | 75.39
323.15 K | 75.39
328.15 K | 75.39
333.15 K | 75.41
338.15 K | 75.41
343.15 K | 75.43
348.15 K | 75.45
353.15 K | 75.48
